We go through 1 molecule from patent publication US7700644B2, “Isoflavonoid dimers” (Novogen Research Pty Ltd, priority 2005, dated 2010).

One assay deals with MCF-7 (Breast). The experiment in a line: In vitro cytotoxicity, MTT proliferation assay, MCF-7. It counts as cell-based, human. Particulars: Homo sapiens, MCF7; Breast MCF-7. As to the method: (§1) The human pancreatic cancer cell line, HPAC (CRL-2119) was routinely cultured in 1:1 mixture DMEM (Sigma) plus Ham's F12 (Sigma) medium containing HEPES (15 mM), insulin (0.002 mg/ml), transferrin (0.005 mg/ml), hydrocortisone, (40 ng/ml), epidermal growth factor (10 ng/ml). The ovarian cancer cell line CP70 was obtained as a gift from Dr. Gil Mor (Yale University) and cultured in a 1:1 mixture DMEM plus Ham's F12 medium, and SKOV-3 was purchased from ATCC and cultured in McCoy's 5a medium. The breast cancer cell line MDA-MB-468 cultured in Leibovitz's L-15 medium.
(§2) All cultures were supplemented with 10% FCS(CSL, Australia), penicillin (100 U/ml), streptomycin ([…]), L-glutamine (2 mM) and sodium bicarbonate (1.2 g/L), and cultured at 37° C. in a humidified atmosphere of 5% CO2. All remaining cell lines were purchased from ATCC (Maryland, USA) except where noted.
(§3) IC50 values were determined for each cell line. Cells were seeded in 96-well plates at an appropriate cell density as determined from growth kinetics analysis. NFFs were cultured for 5 days and RK-13s for 24 hrs in the absence and presence of the test compounds. Cell proliferation was assessed after the addition of 20 μl of 3-4,5 dimethylthiazol-2,5-diphenyl tetrazolium bromide (MTT, 2.5 mg/ml in PBS, Sigma) for 3-4 hrs at 37° C. according to manufacturer's instructions. IC50 values were calculated from semi-log plots of % of control proliferation on the y-axis against log dose on the x-axis.

The subject of another assay is DU145 (Prostate). The experiment in a line: In vitro cytotoxicity, MTT proliferation assay, DU145. The assay is classed as cell-based, human. Particulars: Homo sapiens, DU-145. The method, then: as §1, §2, §3
The subject of a further assay is SKOV-3 (Ovarian). The assay is described as follows: In vitro cytotoxicity, MTT proliferation assay, SKOV-3. It counts as cell-based, human. Particulars: Homo sapiens, SK-OV-3; Ovarian SKOV-3. As to the method: as §1, §2, §3
Assay [1] relates to breast cancer cell line MDA-MB-468. The experiment in a line: In vitro cytotoxicity, MTT proliferation assay, MDA-MB-468. The assay is classed as cell-based, human. The note with it: Homo sapiens; Breast MDA-MB-468. As to the method:
as §1, §2, §3

The subject of another assay is NCI-H460 (Lung). The experiment in a line: In vitro cytotoxicity, MTT proliferation assay, NCI-H460. The assay is classed as cell-based, human. The note with it: Homo sapiens. As to the method: as §1, §2, §3
In another assay the test system is TNFα synthesis. The assay is described as follows: TNFα synthesis in human monocytes incubated with LPS. The assay is classed as cell-based. Particulars: LPS 200 ng/mL, 18 hrs. As to the method: (§4) Human peripheral blood monocytes (from three separate individuals) were isolated from buffy coats by lymphoprep gradient separation of mononuclear cells followed by counter-current centrifugal elutriation (Demasi et al. 2000). The test compounds were dissolved in DMSO and added to fresh monocytes After 30 min, LPS was added to achieve a final concentration of 200 ng/mL. After incubation for 18 hrs at 37° C. in 5% CO2, supernatants were removed and PGE2, TXB2 (the stable hydrolysis product of TXA2) and TNFα production were measured by radioimmunoassay (RIA).

Assay [2] concerns ovarian cancer cell line CP70. The assay is described as follows: In vitro cytotoxicity, MTT proliferation assay, CP70. It counts as cell-based, human. Particulars: Homo sapiens. The method, then: as §1, §2, §3
A further assay deals with RPMI-8226 (Leukemic). The assay is described as follows: In vitro cytotoxicity, MTT proliferation assay, RPMI-8226. The assay is classed as cell-based. The note with it: Homo sapiens; Leukemic RPMI-8226. As to the method:
as §1, §2
(§5) IC50 values were determined for each cell line. Cells were seeded in 96-well plates at an appropriate cell density as determined from growth kinetics analysis. […] Cell proliferation was assessed after the addition of 20 μl of 3-4,5 dimethylthiazol-2,5-diphenyl tetrazolium bromide (MTT, 2.5 mg/ml in PBS, Sigma) for 3-4 hrs at 37° C. according to manufacturer's instructions. IC50 values were calculated from semi-log plots of % of control proliferation on the y-axis against log dose on the x-axis.

For another assay, the system named is A2780 (Ovarian). The experiment in a line: In vitro cytotoxicity, MTT proliferation assay, A2780. The assay is classed as cell-based, human. Particulars: Homo sapiens. The method, then: as §1, §2, §3
Assay [3] has as its system HCT-15 (Colorectal) cells. The assay is described as follows: Chemosensitisation, combination with antineoplastic agent, HCT-15. It counts as cell-based, human. As to the method: The utility of the dimeric compounds of the invention to act as a chemosensitiser when used in combination with an array of standard chemotherapeutic agents was assessed. Dimeric Cpd. 2 was applied to various colorectal and pancreatic cancer cell lines to investigate its synergy with standard chemotherapeutic agents including cisplatin, gemcitabine, paclitaxel, doxorubicin, camptothecin and topotecan.
The experiment as outlined in SOP-BD011 (Versions A and B) was used to screen three antineoplastic agents against a given cell line in any ‘one’ experiment (see for example Kanzawa et al., (1997)). The inherent design of the experiment allowed for three sequences of Cpd. 2 and an antineoplastic agent. • 1) Direct Sequence—Cells are treated with both Cpd. 2 and a single antineoplastic agent (combined) for 5 days. • 2) Cpd. 2 First (Forward) Sequence—Cells are treated for 24 hours with Cpd. 2 before replacing with a 24 hour antineoplastic agent treatment; drugs are then washed out and processed on Day 5. • 3) Reverse Sequence—The reverse order to experiment No. 2 above. i.e. a cytotoxin first sequence Results and Conclusions
All data was evaluated using the formulae of theoretic additivity incorporated into a three dimensional model, as described by Kanzawa et al. (1997). This allows for simple data interpretation as values in excess of 10% are defined as ‘synergistic’ (depicted in grey) whilst those below −10% are defined as ‘antagonistic’ (depicted in black).

Another assay has as its system HTB-138 (Glioma). The experiment in a line: In vitro cytotoxicity, MTT proliferation assay, HTB-138. The assay is classed as cell-based, human. Particulars: Homo sapiens; Glioma HTB-138. The method, then: as §1, §2, §3
Another assay concerns TXB2. The experiment in a line: TXB2 in murine macrophages (RAW 264.7) stimulated with LPS. Particulars: RAW 264.7, LPS 50 ng/ml, 16 hrs, dose responsive. The assay is classed as cell-based, mouse. The method, then: (§6) The mouse macrophage cell line RAW 264.7 was cultured in DMEM supplemented with FCS, 2 mM glutamine and 50 U/ml penicillin/streptomycin. Subconfluent cells were detached from the flask by gentle scraping and 24-well plates seeded at 5×10^5 cells per well and allowed to adhere for 1 hr. Cells were then treated either test compounds (in 0.025% DMSO) or vehicle alone, and incubated for 1 hr. LPS 50 ng/ml (LPS —Sigma-Aldrich) was then added. After incubation for 16 hrs, culture media was collected and stored at −80° C. for ecosanoid and cytokine measurements using enzyme immunometric assays (PGE2 and TXB2—Cayman Chemical and TNFα—Becton Dickinson).

The next assay has as its system CCRF-CEM (Leukemic). The assay is described as follows: In vitro cytotoxicity, MTT proliferation assay, CCRF-CEM. It counts as cell-based. The note with it: Homo sapiens. The method, then:
as §1, §2, §5

The subject of a further assay is HT-29 (Colorectal). The assay is described as follows: In vitro cytotoxicity, MTT proliferation assay, HT-29. The note with it: Homo sapiens; Colorectal HT-29. The assay is classed as cell-based, human. The method, then: as §1, §2, §3
In another assay the test system is PGE2 synthesis. The assay is described as follows: PGE2 synthesis in human monocytes incubated with LPS. It counts as cell-based. Particulars: LPS 200 ng/mL, 18 hrs, dose responsive. The method, then: as §4
In the next assay the test system is PGE2. The experiment in a line: PGE2 in murine macrophages (RAW 264.7) stimulated with LPS. It counts as cell-based, mouse. The note with it: RAW 264.7, LPS 50 ng/ml, 16 hrs, dose responsive. As to the method:
as §6

SMILES strings stand for the structures.

Consider `COc1ccc(C23COc4c(ccc(O)c4C)C2C2c4ccc(O)c(C)c4OCC2c2cc(OC)c(OC)cc23)cc1OC` (stereo not shown) [Cpd. 2, 4,9-Dihydroxy-14,15-dimethoxy-12a-(3′,4′-dimethoxyphenyl)-3,10-dimethyl-2,11-dioxa-(1H,12H)-6b,6c,12a,16b-tetrahydronaphtho[1,2-g]chrysene], for which the IC50 in the assay on MCF-7 (Breast) came out at 10.3 µM; with DU145 (Prostate), 8.84 ± 0.47 µM; in the assay on SKOV-3 (Ovarian), 16.7 ± 10 µM; in [1] it was 8.59 ± 0.35 µM; in the assay on NCI-H460 (Lung) it was 11.3 ± 4.97 µM; in [2], 8.23 ± 3.73 µM. Further, the IC50 in the assay with RPMI-8226 (Leukemic) was determined as 15.2 µM; in the assay with A2780 (Ovarian), 10.16 ± 0.07 µM; with HTB-138 (Glioma), 16.4 µM; in the assay on CCRF-CEM (Leukemic) it was 10.3 ± 1.33 µM; with HT-29 (Colorectal), 11.5 ± 6 µM. In the assay on TNFα synthesis, the “effect on induction of TNFα” value was “inhibited”. Further, the “synergy with Doxorubicin” value in assay [3] (combination (A)) was “strong synergistic cytotoxicity”; in [3] (forward (B) or reverse (C) sequences), “No synergy”. In addition, the “synergy with Paclitaxel” value in assay [3] (combination treated group (A)) is reported as “no synergy”; in assay [3] (forward (B) and reverse (C) 24 hour sequences, Cpd. 2 1 μM and 2 μM), “strong synergy”. In addition, the “effect on TXB2” value with TXB2 is on record as “inhibited”. In addition, in the assay on PGE2 synthesis, the “effect on PGE2 synthesis” value was “induced”. For the same molecule, the “effect on PGE2” value in the assay on PGE2 was “induced”.
